Assay results: patent publication US9060949B2, “Menthyl carbamate compounds as skin and/or hair lightening actives” (SYMRISE AG, priority 2010, dated 2015)

Test system: Pigmented pig skin
Assay: Depigmenting effect on ex vivo skin (melanin granules, Fontana-Masson staining, image analysis)
Format: cell-based
Conditions: 1 wt.% in O/W emulsion applied topically, 6 days, vs. emulsion without test compound
Experimental: Pigmented pig skin was excised from animals (slaughtered for meat production; the pig skin model included the subcutis fat layer as described in EP 1 939 27), cut into 4×4×3 mm pieces (length×width×height) and placed in culture at the air-liquid interface on a sterilized cotton pad soaked with 5 ml of customized DMEM (Dulbecco's Modified Eagle Medium). Assays were started 24 h after sample acclimatization at 37° C., 5% CO2. O/W emulsions (as described in more detail below) without (=control) and with the test compounds, respectively, were applied topically and incubated for 6 days. Histological sections were prepared and melanin granules stained by Fontana-Masson technique. The granules were quantified by image analysis.
The O/W emulsions used had the following composition:
Phases A and B are heated to 70° C. separately. Pemulen TR1 as well as Ultrez-21 are dispersed in phase B when heated to 70° C. Phase B/C is added to phase A by mixing with an Ultra Turrax, followed by emulsifying. Phase D is slowly added to phase A/B/C using a paddle mixer and a pH 5.5-6 is adjusted. The formulation is cooled down while mixing with a paddle mixer. Phase E is prepared by dissolving one or more compounds of formula (I) in Hydrolite-5. Subsequently, phase E is added to the mixture of phase A-D.

SMILES	Melanin score vs. Control [%]
COCCCNC(=O)O[C@@H]1C[C@H](C)CC[C@H]1C(C)C [BIO1155, (3-Methoxy-propyl)-carbamic acid (1R,2S,5R)-2-isopropyl-5-methyl-cyclohexyl ester]	−46
CCNC(=O)O[C@@H]1C[C@H](C)CC[C@H]1C(C)C [BIO1151, Ethyl-carbamic acid (1R,2S,5R)-2-isopropyl-5-methyl-cyclohexyl ester]	−44

Test system: B16V mouse melanoma cells
Assay: Depigmenting effect on melanoma cell cultures (inhibition of pigmentation)
Format: cell-based
Conditions: 96 h, read-out: IC 50 (concentration at which pigmentation is inhibited by 50%)
Experimental: B16V mouse melanoma cells are disseminated in a 96-well microtitre plate in a concentration of 5×10^3 cells/well. After cultivation for 24 h at 37° C. and 5% CO2 in RPMI medium, enriched with 10% foetal calf serum, various concentrations of the test substances and 0.3 mM tyrosine and 10 nM α-MSH (α-melanocyte stimulating hormone) are added and incubated for a further 96 h. The maximum concentration of the test substances used corresponds to 0.1 times the value of the IC20 value of the cytotoxicity assay. Standards are incubated with kojic acid in concentrations of 0.01 mM, 0.1 mM and 1 mM in addition to tyrosine and α-MSH. Only tyrosine and α-MSH are added to the controls. After incubation, sodium lauryl sulfate and sodium hydroxide solution (final concentrations: 1 mM and 1 M respectively) are added to the culture medium and the absorption (A) is measured after 3 h at 400 nm.
The inhibition of pigmentation in the presence of the test compounds or kojic acid was calculated using the following equation: Inhibition of pigmentation(%)=100−[(Atest compound/Acontrol)×100] wherein Atest compound=absorption of the wells with test substance and with cells Acontrol=absorption of the wells without test substance, but with cells
From the inhibition of pigmentation (%) in a series of dilutions of test compounds, the IC50 for each test compound is calculated. This is the concentration of a test compound at which pigmentation is inhibited by 50%.

SMILES	IC50 [µM]
CC(C)[C@@H]1CC[C@@H](C)C[C@H]1OC(=O)NCc1ccc2c(c1)OCO2 [BIO1571, Benzo[1,3]dioxol-5-ylmethyl-carbamic acid (1R,2S,5R)-2-isopropyl-5-methyl-cyclohexyl ester]	5.5

Same assay, conditions: B16V cells, 0.3 mM tyrosine and 10 nM α-MSH, 96 h incubation, absorption at 400 nm, read-out: IC 50 (concentration at which pigmentation is inhibited by 50%)

IC50 [µM]	SMILES
28.7	CCNC(=O)O[C@H]1C[C@H](C)CC[C@H]1C(C)C [BIO1461, Ethyl-carbamic acid (1S,2S,5R)-2-isopropyl-5-methyl-cyclohexyl ester]
35.3	COCCNC(=O)O[C@@H]1C[C@H](C)CC[C@H]1C(C)C [BIO1336, (2-Methoxy-ethyl)-carbamic acid (1R,2S,5R)-2-isopropyl-5-methyl-cyclohexyl ester]
14.8	CC(C)[C@@H]1CC[C@@H](C)C[C@H]1OC(=O)NCC1CCCO1 (stereo partly drawn) [BIO1702, (Tetrahydro-furan-2-ylmethyl)-carbamic acid (1R,2S,5R)-2-isopropyl-5-methyl-cyclohexyl ester]
7.7	CC(C)[C@@H]1CC[C@@H](C)C[C@H]1OC(=O)NCc1ccccc1 [BIO1695, Benzyl-carbamic acid (1R,2S,5R)-2-isopropyl-5-methyl-cyclohexyl ester]
109	CNC(=O)O[C@@H]1C[C@H](C)CC[C@H]1C(C)C [BIO1185, Methyl-carbamic acid (1R,2S,5R)-2-isopropyl-5-methyl-cyclohexyl ester]
100	CC(C)CNC(=O)O[C@@H]1C[C@H](C)CC[C@H]1C(C)C [BIO1159, Isobutyl-carbamic acid (1R,2S,5R)-2-isopropyl-5-methyl-cyclohexyl ester]
22.1	COCCCNC(=O)O[C@@H]1C[C@H](C)CC[C@H]1C(C)C [BIO1155, (3-Methoxy-propyl)-carbamic acid (1R,2S,5R)-2-isopropyl-5-methyl-cyclohexyl ester]
63.9	CNC(=O)O[C@H]1C[C@@H](C)CC[C@@H]1C(C)C [BIO1301, Methyl-carbamic acid (1S,2R,5S)-2-isopropyl-5-methyl-cyclohexyl ester]
1.4	CC(C)[C@@H]1CC[C@@H](C)C[C@H]1OC(=O)NCC1CCCCC1 [BIO1699, Cyclohexylmethyl-carbamic acid (1R,2S,5R)-2-isopropyl-5-methyl-cyclohexyl ester]
29.3	CCNC(=O)O[C@H]1C[C@@H](C)CC[C@@H]1C(C)C [BIO1378, Ethyl-carbamic acid (1S,2R,5S)-2-isopropyl-5-methyl-cyclohexyl ester]
50.7	CC(C)[C@@H]1CC[C@@H](C)C[C@H]1OC(=O)NCCCCCCO [BIO1662, (6-Hydroxy-hexyl)-carbamic acid (1R,2S,5R)-2-isopropyl-5-methyl-cyclohexyl ester]
40.9	CCNC(=O)O[C@@H]1C[C@H](C)CC[C@H]1C(C)C [BIO1151, Ethyl-carbamic acid (1R,2S,5R)-2-isopropyl-5-methyl-cyclohexyl ester]
18.9	CCCCCCNC(=O)O[C@@H]1C[C@H](C)CC[C@H]1C(C)C [BIO1271, Hexyl-carbamic acid (1R,2S,5R)-2-isopropyl-5-methyl-cyclohexyl ester]
498	CCCCNC(=O)O[C@@H]1C[C@H](C)CC[C@H]1C(C)C [BIO1267, Butyl-carbamic acid (1R,2S,5R)-2-isopropyl-5-methyl-cyclohexyl ester]
18.8	CC(C)[C@@H]1CC[C@@H](C)C[C@H]1OC(=O)NC1CCCCC1 [BIO1266, Cyclohexyl-carbamic acid (1R,2S,5R)-2-isopropyl-5-methyl-cyclohexyl ester]
6.9	CC(C)[C@@H]1CC[C@@H](C)C[C@H]1OC(=O)Nc1ccccc1 [BIO1580, Phenyl-carbamic acid (1R,2S,5R)-2-isopropyl-5-methyl-cyclohexyl ester]
67	OC[C@H]1O[C@@H](Oc2ccc(O)cc2)[C@H](O)[C@@H](O)[C@@H]1O [beta-Arbutin, reference compound]
3.2	CCOc1ccccc1NC(=O)O[C@@H]1C[C@H](C)CC[C@H]1C(C)C [BIO1632, (2-Ethoxy-phenyl)-carbamic acid (1R,2S,5R)-2-isopropyl-5-methyl-cyclohexyl ester]
25.4	CC(=O)c1ccccc1NC(=O)O[C@@H]1C[C@H](C)CC[C@H]1C(C)C [BIO1633, (2-Acetyl-phenyl)-carbamic acid (1R,2S,5R)-2-isopropyl-5-methyl-cyclohexyl ester]
7.3	COCCCNC(=O)O[C@H]1C[C@H](C)CC[C@H]1C(C)C [BIO1460, (3-Methoxy-propyl)-carbamic acid (1S,2S,5R)-2-isopropyl-5-methyl-cyclohexyl ester]
19.6	CC(C)OCCCNC(=O)O[C@@H]1C[C@H](C)CC[C@H]1C(C)C [BIO1268, (3-Isopropoxy-propyl)-carbamic acid (1R,2S,5R)-2-isopropyl-5-methyl-cyclohexyl ester]
53.2	COCCCNC(=O)O[C@H]1C[C@@H](C)CC[C@@H]1C(C)C [BIO1339, (3-Methoxy-propyl)-carbamic acid (1S,2R,5S)-2-isopropyl-5-methyl-cyclohexyl ester]
10.7	CCN(CC)C(=O)O[C@@H]1C[C@H](C)CC[C@H]1C(C)C [BIO1553, Diethyl-carbamic acid (1R,2S,5R)-2-isopropyl-5-methyl-cyclohexyl ester]
